From US20230174951A1, “PHENOL-RICH GRAPES” (THE STATE OF ISRAEL, MINISTRY OF AGRICULTURE & RURAL …, priority 2020, published 2023)

How the values were obtained:
[1] = tested on: AroG*+STS28 (Line 16) cells; test: Effect of Phe and p-CA concentrations on cell growth; format: cell-based, Vitis vinifera
Protocol: The concentrations of Phe and p-CA chosen for the feeding experiments were those in which cell viability was not affected, but cell growth was slower. To compare the growth rate, the fresh Weight (FW) of the cells per ml growth media was measured at day 7 of growth. […] Even though the viability of the treated with 0.5-5 mM Phe and 0.1-0.3 mM p-CA was similar, their growth pattern differed with formation of larger clumps in the liquid media (FIG. 6C).

[2] = Water solubility

For `O=C(O)/C=C/c1ccc(O)cc1` [p-Coumaric acid, p-coumaric acid], the cell growth ([1]; 0.3 mM, compared to cells in 0.2% ethanol) was “slower growth” and the water solubility [2] was “not water soluble”.

With `N[C@@H](Cc1ccccc1)C(=O)O` [Phe, Phenylalanine] the “weight of treated cells” value ([1]; 1, 2 and 5 mM, day 7) was “weighed significantly less”.
